The source of these data is patent US12060347B2 (BRISTOL-MYERS SQUIBB COMPANY, priority 2016, dated 2024).

pIC50: −log10 of the molar value. Structures can show the parent of a compound that is named as a salt.

In this test the target is T1, human PAR4 (Homo sapiens, UniProt Q96RI0).
T1 construct: expressed in transfected cells; host or cells: HEK293 PAR4 Clone 1.2A (BMS Arctic ID 383940)
T1 sequence (Q96RI0 18-385): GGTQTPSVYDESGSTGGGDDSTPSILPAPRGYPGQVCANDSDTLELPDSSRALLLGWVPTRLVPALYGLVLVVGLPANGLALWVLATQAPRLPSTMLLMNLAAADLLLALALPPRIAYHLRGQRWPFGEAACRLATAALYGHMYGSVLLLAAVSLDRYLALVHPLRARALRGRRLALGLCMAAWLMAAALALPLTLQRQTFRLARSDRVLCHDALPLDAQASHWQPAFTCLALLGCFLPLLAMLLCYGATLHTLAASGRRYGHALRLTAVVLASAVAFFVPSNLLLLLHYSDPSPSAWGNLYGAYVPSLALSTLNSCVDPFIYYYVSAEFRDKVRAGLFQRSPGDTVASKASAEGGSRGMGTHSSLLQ
Kind of test: PAR4 FLIPR assay: antagonism of agonist-peptide-induced calcium mobilization in PAR4-expressing HEK293 cells. As to conditions: H-Ala-Phe(4-F)-[…]NH2-induced intracellular calcium mobilization, 11-point curves. It is filed as cell-based. A general note: A change in cytosolic calcium serves as a functional read-out for many receptors and channels.
The pIC50 is the IC50 on a negative log10 scale, so that one unit is a factor of ten. As for `COc1cnc2c(-c3nc4cc(F)c(O[C@@H](C)[C@@H](C)OC(=O)Nc5ccc(CO)nc5)cc4s3)cc(C)cc2n1` [Example 499, (2R,3S)-3-((5-fluoro-2-(2-methoxy-7-methylquinoxalin-5-yl)benzo[d]thiazol-6-yl)oxy)butan-2-yl (6-(hydroxymethyl)pyridin-3-yl)carbamate], the negative logarithm of the IC50 (pIC50) is 8.36.
Consider `COc1cnc2c(-c3nc4cc(F)c(O[C@@H](C)[C@@H](C)OC(=O)Nc5ccc(C(C)(C)O)nc5)cc4s3)cc(C)cc2n1` [Example 500, (2R,3S)-3-((5-fluoro-2-(2-methoxy-7-methylquinoxalin-5-yl)benzo[d]thiazol-6-yl)oxy)butan-2-yl (6-(2-hydroxypropan-2-yl)pyridin-3-yl)carbamate], for which the pIC50 was 8.42.
Consider `COc1cnc2c(-c3nc4cc(F)c(O[C@@H](C)[C@@H](C)OC(=O)Nc5cnc(C(C)(C)O)nc5)cc4s3)cc(C)cc2n1` [Example 501, (2R,3S)-3-((5-fluoro-2-(2-methoxy-7-methylquinoxalin-5-yl)benzo[d]thiazol-6-yl)oxy)butan-2-yl (2-(2-hydroxypropan-2-yl)pyrimidin-5-yl)carbamate], for which the negative-log IC50 (pIC50) is 8.40.
For the molecule `COc1cnc2c(-c3nc4cc(F)c(O[C@@H](C)[C@@H](C)OC(=O)Nc5cnc(CO)nc5)cc4s3)cc(C)cc2n1` [Example 502, (2R,3S)-3-((5-fluoro-2-(2-methoxy-7-methylquinoxalin-5-yl)benzo[d]thiazol-6-yl)oxy)butan-2-yl (2-(hydroxymethyl)pyrimidin-5-yl)carbamate], the pIC50 was 8.77.
`COc1cnc2c(-c3nc4cc(F)c(O[C@@H](C)[C@@H](C)OC(=O)Nc5cnc(OCCO)nc5)cc4s3)cc(Cl)cc2c1` [Example 512, (2R,3S)-3-((2-(6-chloro-3-methoxyquinolin-8-yl)-5-fluorobenzo[d]thiazol-6-yl)oxy)butan-2-yl (2-(2-hydroxyethoxy)pyrimidin-5-yl)carbamate]: the pIC50 was 8.92.
Regarding `CCOc1cnc2c(-c3nc4cc(F)c(O[C@@H](C)[C@@H](C)OC(=O)Nc5cnc(OCCO)nc5)cc4s3)cc(Cl)cc2c1` [Example 513, (2R,3S)-3-((2-(6-chloro-3-ethoxyquinolin-8-yl)-5-fluorobenzo[d]thiazol-6-yl)oxy)butan-2-yl (2-(2-hydroxyethoxy)pyrimidin-5-yl)carbamate], the pIC50 is 8.96.
To `COc1cnc2c(-c3nc4cc(F)c(O[C@@H](C)[C@@H](C)OC(=O)Nc5cnc(OCCO)nc5)cc4s3)cc(C)cc2c1` [Example 514, (2R,3S)-3-((5-fluoro-2-(3-methoxy-6-methylquinolin-8-yl)benzo[d]thiazol-6-yl)oxy)butan-2-yl (2-(2-hydroxyethoxy)pyrimidin-5-yl)carbamate] belongs 8.72.
Consider `C[C@H](Oc1cc2sc(-c3cc(Cl)cc4cc(OC(F)F)cnc34)nc2cc1F)[C@@H](C)OC(=O)Nc1cnc(OCCO)nc1` [Example 515, (2R,3S)-3-((2-(6-chloro-3-(difluoromethoxy)quinolin-8-yl)-5-fluorobenzo[d]thiazol-6-yl)oxy)butan-2-yl (2-(2-hydroxyethoxy)pyrimidin-5-yl)carbamate], for which the negative-log IC50 (pIC50) is 8.59.
`CC[C@H](COc1cc2sc(-c3cc(C)cc4nc(OC)cnc34)nc2cc1F)OC(=O)Nc1cccnc1` [Example 517, (R)-1-((5-fluoro-2-(2-methoxy-7-methylquinoxalin-5-yl)benzo[d]thiazol-6-yl)oxy)butan-2-yl pyridin-3-ylcarbamate]: the pIC50 is 8.96.
To `COc1cnc2c(-c3nc4c(Cl)c(F)c(OCCCC(=O)Nc5cccnc5)cc4s3)cc(C)cc2n1` [Example 518, 4-((4-chloro-5-fluoro-2-(2-methoxy-7-methylquinoxalin-5-yl)benzo[d]thiazol-6-yl)oxy)-N-(pyridin-3-yl)butanamide] belongs 7.89.
Consider `COc1cnc2c(-c3nc4c(Cl)c(F)c(OCCNC(=O)Nc5cccnc5)cc4s3)cc(C)cc2n1` [Example 519, 1-(2-((4-chloro-5-fluoro-2-(2-methoxy-7-methylquinoxalin-5-yl)benzo[d]thiazol-6-yl)oxy)ethyl)-3-(pyridin-3-yl)urea], for which the negative logarithm of the IC50 (pIC50) was 7.80.
In the case of `COc1cnc2c(-c3nc4c(Cl)c(F)c(OCCN(C)C(=O)Nc5cnc(C)nc5)cc4s3)cc(C)cc2n1` [Example 520, 1-(2-((4-chloro-5-fluoro-2-(2-methoxy-7-methylquinoxalin-5-yl)benzo[d]thiazol-6-yl)oxy)ethyl)-1-methyl-3-(2-methylpyrimidin-5-yl)urea], the pIC50 is 7.11.
`COc1cnc2c(-c3nc4cc(F)c(O[C@@H](C)[C@@H](C)OC(=O)Nc5ccc(CN6CCOCC6)nc5)cc4s3)cc(C)cc2n1` [Example 521, (2R,3S)-3-((5-fluoro-2-(2-methoxy-7-methylquinoxalin-5-yl)benzo[d]thiazol-6-yl)oxy) butan-2-yl (6-(morpholinomethyl)pyridin-3-yl)carbamate]: the pIC50 is 7.62.
With `Cc1cc(-c2nc3cc(F)c(O[C@@H](C)[C@@H](C)OC(=O)Nc4cnc(C)nc4)cc3s2)c2ncc(N(C)C)nc2c1` [Example 522, (2R,3S)-3-((2-(2-(dimethylamino)-7-methylquinoxalin-5-yl)-5-fluorobenzo[d]thiazol-6-yl)oxy)butan-2-yl (2-methylpyrimidin-5-yl)carbamate], the negative-log IC50 (pIC50) was 7.70.
Take `COc1cnc2c(-c3nc4cc(F)c(O[C@@H](C)[C@@H](C)OC(=O)Nc5ccc(C(=O)O)nc5)cc4s3)cc(C)cc2n1` [Example 523, 5-(((((2R,3S)-3-((5-fluoro-2-(2-methoxy-7-methylquinoxalin-5-yl)benzo[d]thiazol-6-yl)oxy)butan-2-yl)oxy)carbonyl)amino)picolinic acid, TFA]: the negative-log IC50 (pIC50) is 8.59.
On to `COc1cnc2c(-c3nc4cc(F)c(O[C@@H](C)[C@@H](C)OC(N)=O)cc4s3)cc(C)cc2n1` [Example 524, (2R,3S)-3-((5-fluoro-2-(2-methoxy-7-methylquinoxalin-5-yl)benzo[d]thiazol-6-yl)oxy) butan-2-yl carbamate], for which the negative-log IC50 (pIC50) was 7.08.
Regarding `CCOc1cnc2c(-c3nc4cc(F)c(O[C@@H](C)[C@@H](C)OC(=O)Nc5ccc(CCO)nc5)cc4s3)cc(C)cc2n1` [Example 526, (2R,3S)-3-((2-(2-ethoxy-7-methylquinoxalin-5-yl)-5-fluorobenzo[d]thiazol-6-yl)oxy)butan-2-yl (6-(2-hydroxyethyl)pyridin-3-yl)carbamate], the pIC50 is 8.70.
Take `CCOc1cnc2c(-c3nc4cc(F)c(O[C@@H](C)[C@@H](C)OC(=O)Nc5ccc(C(=O)NCC(C)(C)O)nc5)cc4s3)cc(C)cc2n1` [Example 527, (2R,3S)-3-((2-(2-ethoxy-7-methylquinoxalin-5-yl)-5-fluorobenzo[d]thiazol-6-yl)oxy)butan-2-yl (6-((2-hydroxy-2-methylpropyl)carbamoyl)pyridin-3-yl)carbamate]: the negative logarithm of the IC50 (pIC50) was 8.85.
Consider `[2H]C([2H])(O)c1ncc(NC(=O)O[C@H](C)[C@H](C)Oc2cc3sc(-c4cc(C)cc5nc(OC)cnc45)nc3cc2F)cn1` [Example 528, (2R,3S)-3-((5-fluoro-2-(2-methoxy-7-methylquinoxalin-5-yl)benzo[d]thiazol-6-yl)oxy)butan-2-yl (2-(hydroxymethyl)pyrimidin-5-yl)carbamate], for which the pIC50 was 8.30.
Take `CCOc1cnc2c(-c3nc4cc(F)c(O[C@@H](C)[C@@H](C)OC(=O)Nc5cnc(CO)nc5)cc4s3)cc(C)cc2n1` [Example 529, (2R,3S)-3-((2-(2-ethoxy-7-methylquinoxalin-5-yl)-5-fluorobenzo[d]thiazol-6-yl)oxy)butan-2-yl (2-(hydroxymethyl)pyrimidin-5-yl)carbamate]: the negative logarithm of the IC50 (pIC50) was 9.05.
As to `COc1cnc2c(-c3nc4cc(F)c(OC[C@@H](C)OC(=O)Nc5ccc(C(=O)NCC(C)(C)OP(=O)(O)O)nc5)cc4s3)cc(C)cc2n1` [Example 530, (R)-1-((5-fluoro-2-(2-methoxy-7-methylquinoxalin-5-yl)benzo[d]thiazol-6-yl)oxy) propan-2-yl (6-((2-methyl-2-(phosphonooxy)propyl)carbamoyl)pyridin-3-yl)carbamate, TFA], the negative-log IC50 (pIC50) is 8.74.
`CCOc1cnc2c(-c3nc4cc(F)c(O[C@@H](C)[C@@H](C)OC(=O)Nc5ccc(C(=O)NC[C@H](C)O)nc5)cc4s3)cc(C)cc2n1` [Example 531, (2R,3S)-3-((2-(2-ethoxy-7-methylquinoxalin-5-yl)-5-fluorobenzo[d]thiazol-6-yl)oxy)butan-2-yl (6-(((S)-2-hydroxypropyl)carbamoyl)pyridin-3-yl)carbamate, TFA]: the pIC50 is 9.15.
For the molecule `CCOc1cnc2c(-c3nc4cc(F)c(O[C@@H](C)[C@@H](C)OC(=O)Nc5cnc(COP(=O)(O)O)nc5)cc4s3)cc(C)cc2n1` [Example 532, (2R,3S)-3-((2-(2-ethoxy-7-methylquinoxalin-5-yl)-5-fluorobenzo[d]thiazol-6-yl)oxy)butan-2-yl (2-((phosphonooxy)methyl)pyrimidin-5-yl)carbamate], the pIC50 was 8.77.
In the case of `COc1cnc2c(-c3nc4cc(F)c(O[C@@H](C)[C@@H](C)OC(=O)Nc5cncc(O)c5)cc4s3)cc(C)cc2n1` [Example 533, (2R,3S)-3-((5-fluoro-2-(2-methoxy-7-methylquinoxalin-5-yl)benzo[d]thiazol-6-yl)oxy)butan-2-yl (5-hydroxypyridin-3-yl)carbamate], the pIC50 is 9.15.
`COc1cnc2c(-c3nc4cc(F)c(O[C@@H](C)[C@@H](C)OC(=O)Nc5cncc(OCCO)c5)cc4s3)cc(C)cc2n1` [Example 534, (2R,3S)-3-((5-fluoro-2-(2-methoxy-7-methylquinoxalin-5-yl)benzo[d]thiazol-6-yl)oxy) butan-2-yl (5-(2-hydroxyethoxy)pyridin-3-yl)carbamate]: the negative-log IC50 (pIC50) was 9.05.
